Test results published in the supplement of paper PMC11208160.

Test: recombinant UMI read abundance after kanamycin selection (control-corrected) (log10(CPM+1)); higher = more efficient recombination; extreme values may be limits of the assay; sequences stand for … in AGTGCAGAGAAAATCGGCCAGTTTTCTCTGCCTGCAGTCCGCATGCCGTGGGACCCCTTGGGTTCTAACCTGTTGCCTAGATTTATGCAGCGGACTGCCTTTCTCCCAAAGTGATAAACCGG…AGGTTGGTTTCACT; site = the 11-nt donor
In short: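 Pooled Escherichia coli screen of donor and donor-binding-loop pairs for the IS621 bridge recombinase. Each pair sits with a 12-nt UMI on a plasmid carrying a promoterless kanamycin gene. The library was co-electroporated with a target plasmid encoding a fixed target and T7-inducible recombinase, then plated with IPTG (0.07 mM) plus kanamycin, or unselected, each in two replicates. Recombinant UMIs were PCR-amplified across the donor–target junction and sequenced. Counts became CPM, averaged over replicates, scaled by control-derived factors and reported as log10(CPM+1).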
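Also: IS621 bridge recombinase in Escherichia coli cells against a fixed T5 target plasmid.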

“TACTTGACATGGACCGGTTTTCCCGGTAATCCGTATTTGCC (site TACTTGACTTG)” and “TACTTGACATGGACCGGTTTTCCCGGTAATCCGTATTTGTG (site TACTTGACTCA)” are within 0.2 log units of each other in “recombinant UMI read abundance (log10)” value: 0.00491 for the first, 0.00608 for the second.

First: TACTTTCCATGGACCGGTTTTCCCGGTAATCCGTATTTGCG (site TACTTTCCTCG)
Second: TACTTTCCATGGACCGGTTTTCCCGGTAATCCGTATTTGCT (site TACTTTCCTAG)
The “recombinant UMI read abundance (log10)” value of the first is higher: 1.29 for the first, 0.537 for the second.

Compared with “TACTTTGCATGGACCGGTTTTCCCGGTAATCCGTATTTGGA (site TACTTTGCTTC)”, “TAGAAATCATGGACCGGTTTTCCCGGTAATCCGTATTTGCG (site TAGAAATCTCG)” is higher in “recombinant UMI read abundance (log10)” value: 0.0143 for the first, 2.05 for the second.

“TAGAAATCATGGACCGGTTTTCCCGGTAATCCGTATTTGCG (site TAGCAATCTCG)” and “TAGAAATCATGGACCGGTTTTCCCGGTAATCCGTATTTGCG (site TAGGAATCTCG)” are within 0.2 log units of each other in “recombinant UMI read abundance (log10)” value: 1.42 for the first, 1.44 for the second.

“TAGAAATCATGGACCGGTTTTCCCGGTAATCCGTATTTGCG (site TAGTAATCTCG)” and “TAGAACACATGGACCGGTTTTCCCGGTAATCCGTATTTGTC (site TAGAACACTGA)” are within 0.2 log units of each other in “recombinant UMI read abundance (log10)” value: 2.33 for the first, 2.34 for the second.

Going from “TAGAAGACATGGACCGGTTTTCCCGGTAATCCGTATTTGCC (site TAGAAGACTGG)” to “TAGAATACATGGACCGGTTTTCCCGGTAATCCGTATTTGTA (site TAGAATACTTA)”, the “recombinant UMI read abundance (log10)” value falls from 2.25 to 1.55.

First: TAGAATACATGGACCGGTTTTCCCGGTAATCCGTATTTGTA (site TAGAATACTTC)
Second: TAGAATACATGGACCGGTTTTCCCGGTAATCCGTATTTGTA (site TAGAATACTTG)
The “recombinant UMI read abundance (log10)” value of the first is lower: 0.00357 for the first, 0.697 for the second.

Compared with “TAGAATACATGGACCGGTTTTCCCGGTAATCCGTATTTGTA (site TAGAATACTTT)”, “TAGAATACATGGACCGGTTTTCCCGGTAATCCGTATTTGTG (site TAGAATACTCA)” is higher in “recombinant UMI read abundance (log10)” value: 0.208 for the first, 2.01 for the second.

“TAGACGACATGGACCGGTTTTCCCGGTAATCCGTATTTGAC (site TAGACGACTGT)” and “TAGACGGCATGGACCGGTTTTCCCGGTAATCCGTATTTGGC (site TAGACGGCTGC)” are within 0.2 log units of each other in “recombinant UMI read abundance (log10)” value: 2.6 for the first, 2.75 for the second.

Compared with “TAGACTCCATGGACCGGTTTTCCCGGTAATCCGTATTTGCA (site TAGACTCCTTG)”, “TAGCAATCATGGACCGGTTTTCCCGGTAATCCGTATTTGCG (site TAGAAATCTCG)” is lower in “recombinant UMI read abundance (log10)” value: 1.54 for the first, 0 for the second.

Going from “TAGCAATCATGGACCGGTTTTCCCGGTAATCCGTATTTGCG (site TAGCAATCTCG)” to “TAGCAATCATGGACCGGTTTTCCCGGTAATCCGTATTTGCG (site TAGGAATCTCG)”, the “recombinant UMI read abundance (log10)” value falls from 1.45 to 0.

Going from “TAGCAATCATGGACCGGTTTTCCCGGTAATCCGTATTTGCG (site TAGTAATCTCG)” to “TAGCAGTCATGGACCGGTTTTCCCGGTAATCCGTATTTGTC (site TAGCAGTCTGA)”, the “recombinant UMI read abundance (log10)” value rises from 0.646 to 2.39.

Compared with “TAGCCAGCATGGACCGGTTTTCCCGGTAATCCGTATTTGAA (site TAGCAAGCTTT)”, “TAGCCAGCATGGACCGGTTTTCCCGGTAATCCGTATTTGAA (site TAGCCAGCTTT)” is higher in “recombinant UMI read abundance (log10)” value: 0.0207 for the first, 0.924 for the second.

“TAGCCAGCATGGACCGGTTTTCCCGGTAATCCGTATTTGAA (site TAGCGAGCTTT)” and “TAGCCAGCATGGACCGGTTTTCCCGGTAATCCGTATTTGAA (site TAGCTAGCTTT)” are within 0.2 log units of each other in “recombinant UMI read abundance (log10)” value: 0.0055 for the first, 0.00915 for the second.

“TAGCCTCCATGGACCGGTTTTCCCGGTAATCCGTATTTGGT (site TAGCCTACTAC)” and “TAGCCTCCATGGACCGGTTTTCCCGGTAATCCGTATTTGGT (site TAGCCTCCTAC)” are within 0.2 log units of each other in “recombinant UMI read abundance (log10)” value: 0.0161 for the first, 0.00993 for the second.

“TAGCCTCCATGGACCGGTTTTCCCGGTAATCCGTATTTGGT (site TAGCCTGCTAC)” and “TAGCCTCCATGGACCGGTTTTCCCGGTAATCCGTATTTGGT (site TAGCCTTCTAC)” are within 0.2 log units of each other in “recombinant UMI read abundance (log10)” value: 0.0298 for the first, 0 for the second.

“TAGCCTGCATGGACCGGTTTTCCCGGTAATCCGTATTTGGT (site TAGCCTACTAC)” and “TAGCCTGCATGGACCGGTTTTCCCGGTAATCCGTATTTGGT (site TAGCCTCCTAC)” are within 0.2 log units of each other in “recombinant UMI read abundance (log10)” value: 0.00931 for the first, 0.00394 for the second.

“TAGCCTGCATGGACCGGTTTTCCCGGTAATCCGTATTTGGT (site TAGCCTGCTAC)” and “TAGCCTGCATGGACCGGTTTTCCCGGTAATCCGTATTTGGT (site TAGCCTTCTAC)” are within 0.2 log units of each other in “recombinant UMI read abundance (log10)” value: 0.0393 for the first, 0.00419 for the second.

“TAGCCTTCATGGACCGGTTTTCCCGGTAATCCGTATTTGAT (site TAGCCTTCTAA)” and “TAGCCTTCATGGACCGGTTTTCCCGGTAATCCGTATTTGAT (site TAGCCTTCTAC)” are within 0.2 log units of each other in “recombinant UMI read abundance (log10)” value: 0.00922 for the first, 0.0113 for the second.

“TAGCCTTCATGGACCGGTTTTCCCGGTAATCCGTATTTGAT (site TAGCCTTCTAG)” and “TAGCCTTCATGGACCGGTTTTCCCGGTAATCCGTATTTGAT (site TAGCCTTCTAT)” are the same in “recombinant UMI read abundance (log10)” value: 0 for the first, 0 for the second.

“TAGCCTTCATGGACCGGTTTTCCCGGTAATCCGTATTTGCT (site TAGCCTTCTAA)” and “TAGCCTTCATGGACCGGTTTTCCCGGTAATCCGTATTTGCT (site TAGCCTTCTAC)” are within 0.2 log units of each other in “recombinant UMI read abundance (log10)” value: 0.0333 for the first, 0.00853 for the second.

“TAGCCTTCATGGACCGGTTTTCCCGGTAATCCGTATTTGCT (site TAGCCTTCTAG)” and “TAGCCTTCATGGACCGGTTTTCCCGGTAATCCGTATTTGCT (site TAGCCTTCTAT)” are the same in “recombinant UMI read abundance (log10)” value: 0 for the first, 0 for the second.

“TAGCCTTCATGGACCGGTTTTCCCGGTAATCCGTATTTGGT (site AAGCCTTCTAC)” and “TAGCCTTCATGGACCGGTTTTCCCGGTAATCCGTATTTGGT (site CAGCCTTCTAC)” are within 0.2 log units of each other in “recombinant UMI read abundance (log10)” value: 0.00534 for the first, 0.00723 for the second.

“TAGCCTTCATGGACCGGTTTTCCCGGTAATCCGTATTTGGT (site GAGCCTTCTAC)” and “TAGCCTTCATGGACCGGTTTTCCCGGTAATCCGTATTTGGT (site TAACCTTCTAC)” are within 0.2 log units of each other in “recombinant UMI read abundance (log10)” value: 0.0148 for the first, 0 for the second.

“TAGCCTTCATGGACCGGTTTTCCCGGTAATCCGTATTTGGT (site TACCCTTCTAC)” and “TAGCCTTCATGGACCGGTTTTCCCGGTAATCCGTATTTGGT (site TAGACTTCTAC)” are within 0.2 log units of each other in “recombinant UMI read abundance (log10)” value: 0.00592 for the first, 0 for the second.

“TAGCCTTCATGGACCGGTTTTCCCGGTAATCCGTATTTGGT (site TAGCATTCTAC)” and “TAGCCTTCATGGACCGGTTTTCCCGGTAATCCGTATTTGGT (site TAGCCATCTAC)” are within 0.2 log units of each other in “recombinant UMI read abundance (log10)” value: 0.0053 for the first, 0.00583 for the second.

“TAGCCTTCATGGACCGGTTTTCCCGGTAATCCGTATTTGGT (site TAGCCCTCTAC)” and “TAGCCTTCATGGACCGGTTTTCCCGGTAATCCGTATTTGGT (site TAGCCGTCTAC)” are within 0.2 log units of each other in “recombinant UMI read abundance (log10)” value: 0.00791 for the first, 0.0151 for the second.

“TAGCCTTCATGGACCGGTTTTCCCGGTAATCCGTATTTGGT (site TAGCCTACTAC)” and “TAGCCTTCATGGACCGGTTTTCCCGGTAATCCGTATTTGGT (site TAGCCTCCTAC)” are within 0.2 log units of each other in “recombinant UMI read abundance (log10)” value: 0.0102 for the first, 0.00585 for the second.

“TAGCCTTCATGGACCGGTTTTCCCGGTAATCCGTATTTGGT (site TAGCCTGCTAC)” and “TAGCCTTCATGGACCGGTTTTCCCGGTAATCCGTATTTGGT (site TAGCCTTCTAA)” are within 0.2 log units of each other in “recombinant UMI read abundance (log10)” value: 0.0178 for the first, 0.0101 for the second.

“TAGCCTTCATGGACCGGTTTTCCCGGTAATCCGTATTTGGT (site TAGCCTTCTAC)” and “TAGCCTTCATGGACCGGTTTTCCCGGTAATCCGTATTTGGT (site TAGCCTTCTAG)” are within 0.2 log units of each other in “recombinant UMI read abundance (log10)” value: 0.00564 for the first, 0 for the second.

“TAGCCTTCATGGACCGGTTTTCCCGGTAATCCGTATTTGGT (site TAGCCTTCTAT)” and “TAGCCTTCATGGACCGGTTTTCCCGGTAATCCGTATTTGGT (site TAGCCTTCTCC)” are within 0.2 log units of each other in “recombinant UMI read abundance (log10)” value: 0.017 for the first, 0.0356 for the second.

“TAGCCTTCATGGACCGGTTTTCCCGGTAATCCGTATTTGGT (site TAGCCTTCTGC)” and “TAGCCTTCATGGACCGGTTTTCCCGGTAATCCGTATTTGGT (site TAGCCTTCTTC)” are within 0.2 log units of each other in “recombinant UMI read abundance (log10)” value: 0 for the first, 0.0121 for the second.

“TAGCCTTCATGGACCGGTTTTCCCGGTAATCCGTATTTGGT (site TAGCGTTCTAC)” and “TAGCCTTCATGGACCGGTTTTCCCGGTAATCCGTATTTGGT (site TAGCTTTCTAC)” are the same in “recombinant UMI read abundance (log10)” value: 0 for the first, 0 for the second.

“TAGCCTTCATGGACCGGTTTTCCCGGTAATCCGTATTTGGT (site TAGGCTTCTAC)” and “TAGCCTTCATGGACCGGTTTTCCCGGTAATCCGTATTTGGT (site TAGTCTTCTAC)” are within 0.2 log units of each other in “recombinant UMI read abundance (log10)” value: 0.0025 for the first, 0 for the second.
